According to patent EP1247803A2, “Indolinone compounds suitable for modulation of protein kinases” (Sugen, Inc., priority 1996, dated 1998):

The compounds below were run against T1, EGFR (Homo sapiens, UniProt P00533) (assay: EGFR ELISA assay (in vitro kinase activity, EGFR captured from A431 cell lysate)).
T1 construct: Add 7 ug A431 cell lysate per well (EGFR source); endogenous in cells; host or cells: A431
Type: biochemical
Parameters: concentration or dose not given beside the values
How it was run: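 EGFR from A431 lysate was captured on anti-EGFR antibody-coated plates and preincubated with compounds for 30 min. Autophosphorylation ran 5 min with 3 uM ATP and 5 mM MnCl2 (final), stopped with 20 mM EDTA. Phosphotyrosine was detected by anti-pTyr ELISA with ABTS/H2O2, read at 410 nm.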

T1 sequence (P00533 25-1210): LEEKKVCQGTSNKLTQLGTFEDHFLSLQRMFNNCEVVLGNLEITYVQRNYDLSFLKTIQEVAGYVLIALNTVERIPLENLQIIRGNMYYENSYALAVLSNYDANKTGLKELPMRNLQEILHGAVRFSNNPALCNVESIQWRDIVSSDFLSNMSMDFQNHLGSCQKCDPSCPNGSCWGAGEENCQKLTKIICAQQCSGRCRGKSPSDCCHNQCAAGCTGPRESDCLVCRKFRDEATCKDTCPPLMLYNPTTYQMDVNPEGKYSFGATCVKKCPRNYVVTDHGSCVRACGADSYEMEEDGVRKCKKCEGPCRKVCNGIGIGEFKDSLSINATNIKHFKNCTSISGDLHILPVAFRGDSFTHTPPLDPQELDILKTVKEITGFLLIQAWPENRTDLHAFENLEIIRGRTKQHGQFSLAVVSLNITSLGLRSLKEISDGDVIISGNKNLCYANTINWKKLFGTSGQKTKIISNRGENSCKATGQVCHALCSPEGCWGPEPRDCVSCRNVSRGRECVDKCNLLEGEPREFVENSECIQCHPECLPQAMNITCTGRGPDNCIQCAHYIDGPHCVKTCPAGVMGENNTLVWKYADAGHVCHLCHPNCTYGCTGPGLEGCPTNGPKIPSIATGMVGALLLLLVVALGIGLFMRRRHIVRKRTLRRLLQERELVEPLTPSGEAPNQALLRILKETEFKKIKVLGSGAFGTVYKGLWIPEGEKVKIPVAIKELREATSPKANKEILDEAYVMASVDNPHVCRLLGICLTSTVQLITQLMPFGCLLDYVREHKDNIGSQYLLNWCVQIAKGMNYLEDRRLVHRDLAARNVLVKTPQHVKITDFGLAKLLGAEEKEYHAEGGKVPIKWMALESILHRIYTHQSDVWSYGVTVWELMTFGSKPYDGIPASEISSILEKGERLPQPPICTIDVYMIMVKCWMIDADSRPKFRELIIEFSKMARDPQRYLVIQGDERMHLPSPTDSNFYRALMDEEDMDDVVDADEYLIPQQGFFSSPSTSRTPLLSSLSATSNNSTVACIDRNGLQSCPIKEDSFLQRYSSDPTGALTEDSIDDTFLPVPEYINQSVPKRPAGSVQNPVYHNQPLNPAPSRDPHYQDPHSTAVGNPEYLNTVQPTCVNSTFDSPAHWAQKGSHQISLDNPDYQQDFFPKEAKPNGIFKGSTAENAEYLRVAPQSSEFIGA

Going from `O=C1Nc2ccc(S(=O)(=O)N3CCOCC3)cc2C1=Cc1cc(O)c2c(c1O)CCCC2` [10726/F07] to `CNS(=O)(=O)c1ccc2c(c1)C(=Cc1cc(O)c3c(c1O)CCCC3)C(=O)N2` [10726/D07], the “Biochem EGFR %Inhibition” value falls from 76.2% to 18.5%.

Going from `O=C1Nc2ccccc2C1=C1C(=O)Nc2ccc(S(=O)(=O)Nc3ccc(C(F)(F)F)cc3)cc21` [10726/E09] to `O=C1Nc2ccc(F)cc2C1=C1C(=O)Nc2ccc(S(=O)(=O)Nc3ccc(C(F)(F)F)cc3)cc21` [10726/E08], the “Biochem EGFR %Inhibition” value falls from 10.0% to -8.5%.

First: O=C1Nc2ccc(S(=O)(=O)Nc3ccc(C(F)(F)F)cc3)cc2C1=Cc1ccc(Br)o1 [10726/E05]
Second: CCc1ccc(C=C2C(=O)Nc3ccc(S(=O)(=O)Nc4ccc(C(F)(F)F)cc4)cc32)s1 [10726/E10]
The “Biochem EGFR %Inhibition” value of the first is higher: 5.5% for the first, -9.0% for the second.

First: O=C1Nc2ccc(I)cc2C1=Cc1cc2c(cc1Cl)OCO2 [10727/B06]
Second: Cc1c(Br)ccc2c1C(=Cc1cc3c(cc1Cl)OCO3)C(=O)N2 [10727/C06]
The “Biochem EGFR %Inhibition” value of the first is higher: 40.7% for the first, 5.6% for the second.

Going from `CCc1cc(CC)c(C=C2C(=O)Nc3c(Br)cc(Br)cc32)[nH]1` [10727/A03] to `CCc1cc(CC)c(C=C2C(=O)Nc3ccc(Br)c(C)c32)[nH]1` [10727/C03], the “Biochem EGFR %Inhibition” value rises from -19.2% to 14.6%.

Compared with `Cc1cc(C=C2C(=O)Nc3ccc(S(=O)(=O)Nc4ccc(C(F)(F)F)cc4)cc32)cc(C(C)(C)C)c1O` [10726/E04], `Cc1cn(C)cc1C=C1C(=O)Nc2ccc(S(=O)(=O)Nc3ccc(C(F)(F)F)cc3)cc21` [10726/E06] is lower in “Biochem EGFR %Inhibition” value: 53.0% for the first, -20.6% for the second.

Compared with `O=C1Nc2c(Br)cc(Br)cc2C1=Cc1cc2c(cc1Cl)OCO2` [10727/A06], `O=C1Nc2c(Br)cc(Br)cc2C1=Cc1cc(Cl)cc(Br)c1O` [10727/A04] is higher in “Biochem EGFR %Inhibition” value: -6.3% for the first, 28.2% for the second.

First: Cc1c(Br)ccc2c1C(=Cc1ccc(C#N)cc1)C(=O)N2 [10727/C09]
Second: Cc1c(Br)ccc2c1C(=Cc1cccc(C#N)c1)C(=O)N2 [10727/C08]
The “Biochem EGFR %Inhibition” value of the first is higher: 16.6% for the first, 3.6% for the second.

Compared with `CCOC(=O)c1[nH]c(C=C2C(=O)Nc3ccc(S(=O)(=O)N4CCOCC4)cc32)c(C(=O)OC)c1C` [10726/F03], `CCOC(=O)c1[nH]c(C=C2C(=O)Nc3ccc(S(=O)(=O)NC)cc32)c(C(=O)OC)c1C` [10726/D03] is higher in “Biochem EGFR %Inhibition” value: -17.4% for the first, -5.4% for the second.

Compared with `O=C1Nc2c(Br)cc(Br)cc2C1=Cc1ccccc1Sc1ccc(Cl)cc1` [10727/A05], `Cc1c(Br)ccc2c1C(=Cc1ccccc1Sc1ccc(Cl)cc1)C(=O)N2` [10727/C05] is higher in “Biochem EGFR %Inhibition” value: -3.0% for the first, 11.8% for the second.

Compared with `CCN(CC)c1ccc(C=C2C(=O)Nc3c(Br)cc(Br)cc32)cc1` [10727/A02], `N#Cc1ccc(C=C2C(=O)Nc3c(Br)cc(Br)cc32)cc1` [10727/A09] is higher in “Biochem EGFR %Inhibition” value: 3.2% for the first, 12.7% for the second.

Going from `CCc1ccc(C=C2C(=O)Nc3ccc(S(=O)(=O)N4CCOCC4)cc32)s1` [10726/F10] to `O=C1Nc2ccc(S(=O)(=O)N3CCOCC3)cc2C1=Cc1ccc(Br)o1` [10726/F05], the “Biochem EGFR %Inhibition” value falls from -17.4% to -26.8%.

First: CCc1cc(CC)c(C=C2C(=O)Nc3ccc(S(=O)(=O)NC)cc32)[nH]1 [10727/D03]
Second: CCc1cc(CC)c(C=C2C(=O)Nc3ccc(I)cc32)[nH]1 [10727/B03]
The “Biochem EGFR %Inhibition” value of the first is higher: 39.4% for the first, -2.8% for the second.

Compared with `COc1ccc(C=C2C(=O)Nc3ccc(S(=O)(=O)Nc4ccc(C(F)(F)F)cc4)cc32)cc1` [10726/E11], `CNS(=O)(=O)c1ccc2c(c1)C(=Cc1ccc(OC)cc1)C(=O)N2` [10726/D11] is higher in “Biochem EGFR %Inhibition” value: -14.1% for the first, -6.3% for the second.

First: CNS(=O)(=O)c1ccc2c(c1)C(=C1C(=O)Nc3ccccc31)C(=O)N2 [10726/D09]
Second: CNS(=O)(=O)c1ccc2c(c1)C(=C1C(=O)Nc3ccc(F)cc31)C(=O)N2 [10726/D08]
The “Biochem EGFR %Inhibition” value of the first is higher: -6.5% for the first, -11.4% for the second.

Going from `O=C1Nc2c(Br)cc(Br)cc2C1=Cc1cc(O)ccc1O` [10727/A10] to `O=C1Nc2c(Br)cc(Br)cc2C1=Cc1c[nH]c2ccccc12` [10717/A06], the “Biochem EGFR %Inhibition” value falls from 89.0% to -7.8%.

Going from `CCc1ccc(C=C2C(=O)Nc3ccc(S(=O)(=O)NC)cc32)s1` [10726/D10] to `CNS(=O)(=O)c1ccc2c(c1)C(=Cc1ccc(Br)o1)C(=O)N2` [10726/D05], the “Biochem EGFR %Inhibition” value falls from -6.5% to -8.1%.

First: N#Cc1cccc(C=C2C(=O)Nc3ccc(I)cc32)c1 [10727/B08]
Second: N#Cc1ccc(C=C2C(=O)Nc3ccc(I)cc32)cc1 [10727/B09]
The “Biochem EGFR %Inhibition” value of the first is higher: 47.4% for the first, 31.7% for the second.

Going from `CCOC(=O)c1[nH]c(C=C2C(=O)Nc3ccc(S(=O)(=O)Nc4ccc(C(F)(F)F)cc4)cc32)c(C(=O)OC)c1C` [10726/E03] to `CCOC(=O)c1[nH]c(C=C2C(=O)Nc3ccc(CCCl)cc32)c(C(=O)OC)c1C` [10726/G03], the “Biochem EGFR %Inhibition” value falls from -15.9% to -17.2%.

Compared with `CCN(CC)c1ccc(C=C2C(=O)Nc3ccc(I)cc32)cc1` [10727/B02], `CCN(CC)c1ccc(C=C2C(=O)Nc3ccc(S(=O)(=O)NC)cc32)cc1` [10727/D02] is higher in “Biochem EGFR %Inhibition” value: -18.4% for the first, 22.6% for the second.

Going from `COc1cccc(C=C2C(=O)Nc3c(Br)cc(Br)cc32)c1OC` [10727/A11] to `COc1cccc(C=C2C(=O)Nc3ccc(Br)c(C)c32)c1OC` [10727/C11], the “Biochem EGFR %Inhibition” value falls from 6.2% to -15.6%.

Going from `O=C1Nc2ccc(CCCl)cc2C1=Cc1cc(O)c2c(c1O)CCCC2` [10726/G07] to `O=C1Nc2ccc(S(=O)(=O)Nc3ccc(C(F)(F)F)cc3)cc2C1=Cc1cc(O)c2c(c1O)CCCC2` [10726/E07], the “Biochem EGFR %Inhibition” value falls from 54.4% to 20.5%.

First: O=C1Nc2ccc(I)cc2C1=Cc1cc(O)ccc1O [10727/B10]
Second: Cc1c(Br)ccc2c1C(=Cc1cc(O)ccc1O)C(=O)N2 [10727/C10]
The “Biochem EGFR %Inhibition” value of the first is higher: 94.0% for the first, 85.3% for the second.

First: O=C1Nc2ccc(CCCl)cc2C1=Cc1ccc(Br)o1 [10726/G05]
Second: O=C1Nc2ccc(CCCl)cc2C1=Cc1ccc(Br)cc1 [10717/G08]
The “Biochem EGFR %Inhibition” value of the first is lower: 5.1% for the first, 36.4% for the second.

First: O=C1Nc2ccc(CCCl)cc2C1=Cc1ccc(F)cc1 [10717/G05]
Second: COc1ccc(C=C2C(=O)Nc3ccc(CCCl)cc32)cc1 [10726/G11]
The “Biochem EGFR %Inhibition” value of the first is lower: -0.1% for the first, 1.3% for the second.

Going from `CNS(=O)(=O)c1ccc2c(c1)C(=Cc1cn(C)cc1C)C(=O)N2` [10726/D06] to `Cc1cn(C)cc1C=C1C(=O)Nc2ccc(S(=O)(=O)N3CCOCC3)cc21` [10726/F06], the “Biochem EGFR %Inhibition” value rises from -24.4% to -24.1%.

Compared with `O=C1Nc2ccc(F)cc2C1=C1C(=O)Nc2ccc(S(=O)(=O)N3CCOCC3)cc21` [10726/F08], `O=C1Nc2ccccc2C1=C1C(=O)Nc2ccc(S(=O)(=O)N3CCOCC3)cc21` [10726/F09] is lower in “Biochem EGFR %Inhibition” value: -21.5% for the first, -22.8% for the second.

Compared with `Cc1cc(C=C2C(=O)Nc3ccc(CCCl)cc32)cc(C(C)(C)C)c1O` [10726/G04], `CNS(=O)(=O)c1ccc2c(c1)C(=Cc1cc(C)c(O)c(C(C)(C)C)c1)C(=O)N2` [10726/D04] is lower in “Biochem EGFR %Inhibition” value: 60.6% for the first, -20.1% for the second.

First: Cc1c(Br)ccc2c1C(=Cc1coc3ccccc3c1=O)C(=O)N2 [10727/C07]
Second: O=C1Nc2ccc(I)cc2C1=Cc1coc2ccccc2c1=O [10727/B07]
The “Biochem EGFR %Inhibition” value of the first is lower: 8.4% for the first, 46.5% for the second.

Compared with `Cc1cn(C)cc1C=C1C(=O)Nc2ccc(CCCl)cc21` [10726/G06], `Cc1ccc(C=C2C(=O)Nc3ccc(CCCl)cc32)s1` [10717/G07] is higher in “Biochem EGFR %Inhibition” value: -37.5% for the first, 13.1% for the second.

Going from `CCN(CC)c1ccc(C=C2C(=O)Nc3ccc(Br)c(C)c32)cc1` [10727/C02] to `COc1ccc(C=C2C(=O)Nc3ccc(Br)c(C)c32)cc1` [10726/C11], the “Biochem EGFR %Inhibition” value rises from -28.5% to 4.8%.

First: O=C1Nc2c(Br)cc(Br)cc2C1=Cc1coc2ccccc2c1=O [10727/A07]
Second: N#Cc1cccc(C=C2C(=O)Nc3c(Br)cc(Br)cc32)c1 [10727/A08]
The “Biochem EGFR %Inhibition” value of the first is lower: -3.7% for the first, 9.7% for the second.

Going from `Cc1cc(C=C2C(=O)Nc3ccc(S(=O)(=O)N4CCOCC4)cc32)cc(C(C)(C)C)c1O` [10726/F04] to `COc1ccc(C=C2C(=O)Nc3ccc(S(=O)(=O)N4CCOCC4)cc32)cc1` [10726/F11], the “Biochem EGFR %Inhibition” value falls from 33.4% to -16.8%.

Going from `COc1cccc(O)c1C=C1C(=O)Nc2ccc(CCCl)cc21` [10717/G10] to `Cn1cccc1C=C1C(=O)Nc2ccc(CCCl)cc21` [10717/G04], the “Biochem EGFR %Inhibition” value rises from 2.4% to 6.0%.

First: O=C1Nc2ccc(F)cc2C1=C1C(=O)Nc2ccc(CCCl)cc21 [10726/G08]
Second: O=C1Nc2ccccc2C1=C1C(=O)Nc2ccc(CCCl)cc21 [10726/G09]
The “Biochem EGFR %Inhibition” value of the first is lower: -2.7% for the first, 3.3% for the second.

First: Cc1c(Br)ccc2c1C(=Cc1cc(Cl)cc(Br)c1O)C(=O)N2 [10727/C04]
Second: O=C1Nc2ccc(I)cc2C1=Cc1cc(Cl)cc(Br)c1O [10727/B04]
The “Biochem EGFR %Inhibition” value of the first is lower: 27.6% for the first, 47.4% for the second.

Compared with `Cc1c(Br)ccc2c1C(=C1C(=O)Nc3ccc(F)cc31)C(=O)N2` [10726/C08], `Cc1c(Br)ccc2c1C(=C1C(=O)Nc3ccccc31)C(=O)N2` [10726/C09] is lower in “Biochem EGFR %Inhibition” value: 7.5% for the first, -14.3% for the second.

Going from `O=C1Nc2ccc(CCCl)cc2C1=Cc1ccc[nH]1` [10717/G09] to `O=C1Nc2ccc(CCCl)cc2C1=Cc1c[nH]c2ccccc12` [10717/G06], the “Biochem EGFR %Inhibition” value falls from 24.9% to -3.4%.

Going from `O=C1Nc2ccc(I)cc2C1=Cc1ccccc1Sc1ccc(Cl)cc1` [10727/B05] to `COc1cccc(C=C2C(=O)Nc3ccc(I)cc32)c1OC` [10727/B11], the “Biochem EGFR %Inhibition” value falls from 39.0% to 6.9%.

Compared with `CCc1ccc(C=C2C(=O)Nc3ccc(CCCl)cc32)s1` [10726/G10], `CCc1ccc(C=C2C(=O)Nc3ccc(Br)c(C)c32)s1` [10726/C10] is lower in “Biochem EGFR %Inhibition” value: 6.0% for the first, 2.8% for the second.
